Here are results for 14 compounds from PubChem BioAssay AID330 (DTP/NCI, 2004).

Several values for one entry are separate records, joined by “and”; a condition that tells them apart may be missing. Equal entries are not always repeated. Inconclusive results and toxic doses are left out.

The experiment deals with P388 leukemia ip, CD2F1 mice, survival T/C. The experiment in a line: NCI In Vivo Anticancer Drug Screen. Data for tumor model P388 Leukemia (intraperitoneal) in CD2F1 (CDF1) mice. The following applies: endpoint: median survival time, higher = longer survival. The method in brief:
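Mice carrying the transplanted tumor received test compound or vehicle. Survival was recorded in each group, and the value is the treated-group measurement divided by that of the vehicle-treated control group.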

Setting [1] is: dose: 100.0 mg/kg/injection, schedule: Q04DX003 (ip), vehicle: saline with Tween-80.
The mark [2] stands for this setting: dose: 400.0 mg/kg/injection, schedule: Q04DX003 (ip), vehicle: saline with Tween-80.
Where [3] appears, read: dose: 50.0 mg/kg/injection, schedule: Q01DX009 (ip), vehicle: saline with Tween-80.

Take `CCN(CC)CCNc1ccc(CO)c2sc3ccccc3c(=O)c12`: the T/C by setting is: (dose: 5.0 mg/kg/injection, schedule: Q01DX005 (ip), vehicle: water) 110 % of control; (dose: 5.0 mg/kg/injection, schedule: Q01DX009 (ip), vehicle: water) 113 % of control; (dose: 6.25 mg/kg/injection, schedule: Q01DX005 (ip), vehicle: saline) 104 % of control; (dose: 6.25 mg/kg/injection, schedule: Q01DX005 (iv), vehicle: saline) 100 % of control; (dose: 10.0 mg/kg/injection, schedule: Q01DX005 (ip), vehicle: water) 106 % of control; (dose: 10.0 mg/kg/injection, schedule: Q01DX009 (ip), vehicle: water) 116 % of control. The T/C (dose: 10.36 mg/kg/injection, schedule: Q01DX005 (ip), vehicle: water) was 118 % of control; the T/C (dose: 12.5 mg/kg/injection, schedule: Q01DX005 (ip), vehicle: saline) was 101 % of control; the T/C (dose: 12.5 mg/kg/injection, schedule: Q01DX005 (iv), vehicle: saline) is 104 % of control; the T/C (dose: 12.5 mg/kg/injection, schedule: Q01DX009 (ip), vehicle: water) is 109 % of control; the T/C (dose: 17.28 mg/kg/injection, schedule: Q01DX005 (ip), vehicle: water) was 109 % of control; the T/C (dose: 20.0 mg/kg/injection, schedule: Q01DX005 (ip), vehicle: water) was 104 % of control. Further, the T/C is 118 % of control (dose: 20.0 mg/kg/injection, schedule: Q01DX009 (ip), vehicle: water); 109 % of control (dose: 25.0 mg/kg/injection, schedule: Q01DX005 (ip), vehicle: saline); 108 % of control (dose: 25.0 mg/kg/injection, schedule: Q01DX005 (iv), vehicle: saline); 122 % of control (dose: 25.0 mg/kg/injection, schedule: Q01DX009 (ip), vehicle: water); 109 % of control (dose: 28.8 mg/kg/injection, schedule: Q01DX005 (ip), vehicle: water); 117 % of control (dose: 50.0 mg/kg/injection, schedule: Q01DX005 (iv), vehicle: saline). For the same compound, the T/C is, setting by setting: (dose: 50.0 mg/kg/injection, schedule: Q01DX009 (ip), vehicle: water) 156 % of control; (dose: 80.0 mg/kg/injection, schedule: Q01DX005 (ip), vehicle: water) 151 % of control and 182 % of control; (dose: 100.0 mg/kg/injection, schedule: Q01DX009 (ip), vehicle: water) 100 % of control; under setting [1], 118 % of control; (dose: 200.0 mg/kg/injection, schedule: Q04DX003 (ip), vehicle: saline sonified) 150 % of control; under setting [2], 90 % of control.
As for `CCCCCCC(/C=C/c1ccc(Cl)c(Cl)c1)=N\Nc1ccccc1`, the T/C reads like this: (dose: 6.25 mg/kg/injection, schedule: Q01DX009 (ip), vehicle: saline with Tween-80) 103 % of control; (dose: 12.5 mg/kg/injection, schedule: Q01DX009 (ip), vehicle: saline with Tween-80) 97 % of control; (dose: 25.0 mg/kg/injection, schedule: Q01DX009 (ip), vehicle: saline with Tween-80) 103 % of control; under setting [3], 100 % of control.
As to `COC(=O)c1nc(N)nc(C(=O)OC)c1C(=O)c1cccc2ccccc12`, the T/C by setting is: (dose: 60.0 mg/kg/injection, schedule: Q01DX005 (ip), vehicle: Klucel (hydroxypropylcellulose) (HPC)) 99 % of control; (dose: 120.0 mg/kg/injection, schedule: Q01DX005 (ip), vehicle: Klucel (hydroxypropylcellulose) (HPC)) 100 % of control.
As for `CCOC(=O)/C(NC(=O)c1ccccc1)=C(\NC(=O)c1ccccc1)C(=O)OCC`, the T/C is 104 % of control (dose: 60.0 mg/kg/injection, schedule: Q01DX005 (ip), vehicle: saline); 96 % of control (dose: 120.0 mg/kg/injection, schedule: Q01DX005 (ip), vehicle: saline); 96 % of control (dose: 240.0 mg/kg/injection, schedule: Q01DX005 (ip), vehicle: saline).
Consider `Cc1cc(=O)n2c(c1)[nH]c1ccccc12`, for which the T/C is 89 % of control (dose: 100.0 mg/kg/injection, schedule: Q01DX001 (ip), vehicle: Klucel (hydroxypropylcellulose) (HPC)); 90 % of control (dose: 200.0 mg/kg/injection, schedule: Q01DX001 (ip), vehicle: Klucel (hydroxypropylcellulose) (HPC)); 88 % of control (dose: 400.0 mg/kg/injection, schedule: Q01DX001 (ip), vehicle: Klucel (hydroxypropylcellulose) (HPC)).
`c1ccc(-c2c[s+]cs2)cc1`: the T/C (dose: 6.25 mg/kg/injection, schedule: Q01DX009 (ip), vehicle: distilled water + Tween-80) was 111 % of control; the T/C (dose: 12.5 mg/kg/injection, schedule: Q01DX009 (ip), vehicle: distilled water + Tween-80) was 107 % of control and 114 % of control; the T/C (dose: 25.0 mg/kg/injection, schedule: Q01DX009 (ip), vehicle: distilled water + Tween-80) is 121 % of control and 123 % of control; the T/C (dose: 50.0 mg/kg/injection, schedule: Q01DX009 (ip), vehicle: distilled water + Tween-80) was 104 % of control; the T/C (dose: 100.0 mg/kg/injection, schedule: Q01DX009 (ip), vehicle: distilled water + Tween-80) was 114 % of control.
In the case of `OC(Cc1nc2ccccc2s1)(C(F)(F)F)C(F)(F)F`, the T/C runs as follows: under setting [1], 100 % of control; (dose: 200.0 mg/kg/injection, schedule: Q04DX003 (ip), vehicle: saline with Tween-80) 95 % of control; under setting [2], 95 % of control.
Take `CC(C)(S)C(N)C(=O)O` (stereo unspecified): the T/C is 98 % of control (dose: 50.0 mg/kg/injection, schedule: Q01DX009 (ip), vehicle: Klucel (hydroxypropylcellulose) (HPC)); 105 % of control (dose: 100.0 mg/kg/injection, schedule: Q01DX009 (ip), vehicle: Klucel (hydroxypropylcellulose) (HPC)); 94 % of control (dose: 200.0 mg/kg/injection, schedule: Q01DX009 (ip), vehicle: Klucel (hydroxypropylcellulose) (HPC)).
`CCc1nc(N)nc(N)c1-c1ccc(OC)c(N)c1`: the T/C (dose: 50.0 mg/kg/injection, schedule: Q01DX005 (ip), vehicle: saline with Tween-80) is 102 % of control and 116 % of control; the T/C (dose: 100.0 mg/kg/injection, schedule: Q01DX005 (ip), vehicle: saline with Tween-80) was 112 % of control; the T/C (dose: 200.0 mg/kg/injection, schedule: Q01DX005 (ip), vehicle: saline with Tween-80) is 119 % of control.
As to `CC(=O)N(OS(C)(=O)=O)C1CCCCC1`, the T/C runs as follows: (dose: 50.0 mg/kg/injection, schedule: Q01DX007 (ip), vehicle: saline with Tween-80) 92 % of control; (dose: 100.0 mg/kg/injection, schedule: Q01DX007 (ip), vehicle: saline with Tween-80) 100 % of control; (dose: 200.0 mg/kg/injection, schedule: Q01DX007 (ip), vehicle: saline with Tween-80) 90 % of control.
In the case of `CCO/C([O-])=C(\C=N\[n+]1ccccc1C)c1ccccc1`, the T/C was 109 % of control (dose: 50.0 mg/kg/injection, schedule: Q01DX009 (ip), vehicle: saline); 110 % of control (dose: 100.0 mg/kg/injection, schedule: Q01DX009 (ip), vehicle: saline); 109 % of control (dose: 200.0 mg/kg/injection, schedule: Q01DX009 (ip), vehicle: saline).
Regarding `O=C(O)c1ccccc1Nc1cccc([N+](=O)[O-])c1`, the T/C is, setting by setting: (dose: 25.0 mg/kg/injection, schedule: Q04DX003 (ip), vehicle: saline) 99 % of control; (dose: 50.0 mg/kg/injection, schedule: Q04DX003 (ip), vehicle: saline) 114 % of control; (dose: 100.0 mg/kg/injection, schedule: Q04DX003 (ip), vehicle: saline) 114 % of control; (dose: 200.0 mg/kg/injection, schedule: Q04DX003 (ip), vehicle: saline) 112 % of control.
As to `COc1ccc2c(NCCCCCCNc3c4ccccc4nc4cc(OC)ccc34)c3ccccc3nc2c1`, the T/C is 151 % of control (dose: 0.62 mg/kg/injection, schedule: Q## X009 (ip), vehicle: lactic acid); 119 % of control (dose: 0.63 mg/kg/injection, schedule: Q01DX009 (ip), vehicle: other); 170 % of control (dose: 1.25 mg/kg/injection, schedule: Q## X009 (ip), vehicle: lactic acid); 170 % of control (dose: 2.5 mg/kg/injection, schedule: Q## X009 (ip), vehicle: lactic acid); 154 % of control (dose: 5.0 mg/kg/injection, schedule: Q01DX009 (ip), vehicle: other); 164 % of control (dose: 5.0 mg/kg/injection, schedule: Q## X009 (ip), vehicle: lactic acid). Besides, the T/C (dose: 10.0 mg/kg/injection, schedule: Q01DX009 (ip), vehicle: other) is 110 % of control and the T/C (dose: 10.0 mg/kg/injection, schedule: Q## X009 (ip), vehicle: lactic acid) is 86 % of control.
`CC1=NN(C(=O)c2ccncc2)C(=O)C1N=Nc1c(C)n(C)n(-c2ccccc2)c1=O` (stereo unspecified): the T/C was 102 % of control under setting [3]; 101 % of control (dose: 100.0 mg/kg/injection, schedule: Q01DX009 (ip), vehicle: saline with Tween-80); 99 % of control (dose: 200.0 mg/kg/injection, schedule: Q01DX009 (ip), vehicle: saline with Tween-80).
